From patent US20130209441A1, “PROCESS FOR INHIBITION OF CEREBRAL DAMAGE ASSOCIATED WITH ISCHEMIA BY ANTHOCYANINS AND ANTHOCYANIDINS” (priority 2012, published 2013)

How the values were obtained:
[1] = test system: pMCAO mice; experiment: Mouse model of permanent middle cerebral artery occlusion (pMCAO): infarct volume (TTC staining) and 18-point neurological score at 24 h; format: in vivo; details: 24 h after pMCAO, vs vehicle
Protocol: C3G is isolated from Prunus cerasus fruits as previously described is dissolved in 0.9% normal saline (NS) and is administered by oral gavage to mice at 1-h before induction of pMCAO. Mice are randomly distributed into […] and treated with vehicle (n=10), or 1 mg/kg (n=8), 2 mg/kg (n=10), and 5 mg/kg (n=9) of C3G. The doses chosen in the present study are based on previous reports. Animals are euthanized at 24 h following pMCAO and infarct volumes are determined.
To evaluate the effect of a delayed treatment at 3 h following pMCAO, mice are randomly assigned to vehicle (n=11), or 2 mg/kg of C3G administered orally at 3 h after pMCAO supplemented by two additional doses of 2 mg/kg of C3G 3 h apart. […] Animals are euthanized at 24 h following pMCAO and infarct volumes and neurological outcomes are determined.
Neurological assessment of experimental mice is performed according to an 18 point-based scale at 1 h before induction of pMCAO and at 24 h following surgery. Brains are immediately removed following neurological assessment, rinsed in cold saline solution, cut into 1-mm-thick coronal sections, and processed for 2% 2,3,5-triphenylterazolium chloride (TTC) staining as previously described. The infarct volumes from individual sections are then summed to determine the total brain infarct volume and adjusted for edema (corrected infarct volume).
All data are expressed as mean values±S.E.M. The degree of statistical significance between groups is determined on the basis of Student t-test, One-way ANOVA test, followed by post hoc Fisher LSD test, and Kruskal-Wallis rank test. SigmaStat 3.0 software (SYSTAT Software Inc., Point Richmond, Calif.) is used to carry out the analysis. Statistical significance is defined at p<0.05.

[2] = test system: cyt c release from isolated mitochondria; experiment: Cyt c release from isolated mouse brain mitochondria (immunoblot of supernatant); format: biochemical; details: for cyt c release in response to Ca2+: Ca2+ 100 μM stimulation
Protocol: (§1) Measurement of superoxide is performed in situ by superoxide-selective oxidative fluorescent dye dihydroethidium cell membranes (DHE) as previously described in [3]. DHE is freely permeable across cell membranes and fluoresces red when oxidized to ethidium bromide by superoxide. Unfixed frozen brain sections (30 um) are placed on glass slides and submerged in 10^−6 mol/L DHE (Sigma) in phosphate buffered saline (PBS) buffer, pH 7.4 and incubated at 37° C. for 30 min in a dark humidified container. Fluorescence in ischemic regions of brain sections is then detected by a Zeiss 210 confocal microscope with a 590-nn long-pass filter. The intensity of the fluorescence is analyzed and quantified by densitometry (NIH Image software, version 1.37). The study included three groups (sham-operated, pMCAO with vehicle-treated, and pMCAO with 2 mg/kg of CG-treated mice; (n=4). Four brain sections of each mouse and five fields in each section are measured to calculate mean levels of the brain superoxide. Mitochondria are prepared from adult mouse brains (6-8 weeks old) by using the Percoll gradient method, as previously described. After decapitation, the brain is quickly removed and washed in the isolation buffer (300 mM sucrose, 0.1 mM EGTA, 10 mM HEPES, pH 7.4). The brain is homogenized in 15 ml of buffer by using hand-held glass Potter-Elvehjem homogenizer with PTFE pestle. After 5 strokes, the cell debris and nuclei are centrifuged at 1330×g for 5 min. The supernatant is further centrifuged at 21,200×g for 10 min. Mitochondrial fraction is resuspended in 15% Percoll solution diluted in the isolation buffer and layered on top of a discontinuous Percoll gradient of 25/40%. The density gradient is centrifuged at 30,700×g for 10 min and mitochondria are collected from the interface between 25 and 40% Percoll solution, transferred to a new tube, and washed in 10 mL of isolation buffer by centrifugation at 6700×g for 10 min. The resulting pellet is suspended in the isolation buffer without EGTA and further diluted to 2 mg/mL in assay buffer for the cyt c release assay. 50 μL of mitochondria are then mixed with buffer or reagents in a final reaction volume of 100 L.
The assay buffer contains 125 mM KCI, 2 mM KH2PO4, 4 mM MgCl2 at pH 7.4, and 3 mM ATP, 0.8 mM ADP, 5 mM succinate and 2 μM rotenone for respiration. Mitochondrial suspensions diluted in the assay buffer are exposed to Ca^2+ (100 μM), S-nitrosoglutathione (GS—NO, 50 μM for nitric oxide generation) or H2O2 (50 μM for oxidative stress) in 10 min and centrifuged sat 12,000×g in 5 min. The supernatant is collected and 15 μL of aliquots are run on a SDS-PAGE gel to detect the release of cyt c by the immunoblotting assay. […]

[3] = test system: superoxide; experiment: In situ detection of brain superoxide by dihydroethidium (DHE) fluorescence in pMCAO mice; format: in vivo, mouse; details: pretreatment 2 mg/kg orally; 24 h after pMCAO; vs vehicle, p<0.05
Protocol: as §1, with “After 5 strokes, the cell debris and nuclei are centrifuged at 1330×g for 5 min. The supernatant is further centrifuged at 21,200×g for 10 min. Mitochondrial fraction is resuspended in 15% Percoll solution diluted in the isolation buffer and layered on top of a discontinuous Percoll gradient of 25/40%. The density gradient is centrifuged at 30,700×g for 10 min and mitochondria are collected from the interface between 25 and 40% Percoll solution, transferred to a new tube, and washed in 10 mL of isolation buffer by centrifugation at 6700×g for 10 min. The resulting pellet is suspended in the isolation buffer without EGTA and further diluted to 2 mg/mL in assay buffer for the cyt c release assay. 50 μL of mitochondria are then mixed with buffer or reagents in a final reaction volume of 100 L.” left out

[4] = test system: AIF release from isolated mitochondria; experiment: AIF release from isolated mouse brain mitochondria; format: biochemical; details: compound 100 μM
Protocol: Mitochondria are prepared from mouse brains using flowing differential centrifugation procedures at 4° C. described previously. Homogenation buffer (50 μl) containing the prepared mitochondrial pellet is incubated with 25 μl of C3G at the desired concentration and the buffer added to achieve the final volume of 100 μl. The AIF release is then assessed in the presence of 100 μM of C3G in response to stimulation by GS-NO (50 μM) and H2O2 (50 μM).

## OC[C@H]1O[C@@H](Oc2cc3c(O)cc(O)cc3[o+]c2-c2ccc(O)c(O)c2)[C@H](O)[C@@H](O)[C@@H]1O [C3G, cyanidin-3-O-glucoside]
[1]; 2 mg/kg oral gavage 1 h before pMCAO
  reduction of infarct volume: 27%
[1]; 5 mg/kg oral gavage 1 h before pMCAO
  reduction of infarct volume: 30%
[1]; delayed treatment: 2 mg/kg orally at 3 h after pMCAO plus two additional 2 mg/kg doses 3 h apart
  reduction in infarct size: 25%
[1]; pretreatment 2 mg/kg orally
  neurological performance (18-point score): statistically significant better neurological performance
[1]; pretreatment 5 mg/kg orally
  neurological performance (18-point score): statistically significant better neurological performance
[1]; treatment 2 mg/kg orally at 3 h after onset of ischemia plus two additional doses
  neurological functional performance (18-point score): significantly better
[2]; compound 1 μM
  cyt c release in response to Ca2+: no effect
[2]; compound 100 μM
  cyt c release in response to Ca2+: did not prevent
[2]; GS-NO 50 μM oxidative stress, compound 100 μM
  cyt c release in response to GS-NO: did not prevent
[2]; H2O2 50 μM oxidative stress, compound 100 μM
  cyt c release in response to H2O2: did not prevent
[3]
  fluorescent density of brain superoxide in situ: significantly suppressed
[4]; GS-NO 50 μM stimulation
  AIF release in response to GS-NO: partially prevented
[4]; H2O2 50 μM stimulation
  AIF release in response to H2O2: partially prevented
